Converted amounts (≈) assume the structure as drawn. Like-named read-outs stand apart in the source and are kept apart here.

Holding throughout (test): MIC, standard agar-dilution assay
Type in all cases: cell-based

In assay [1] the test system is Staphylococcus aureus V41. To be noted: Staphylococcus aureus. The text has this:
(§1) In addition to excellent in vitro activity against erythromycin-sensitive bacteria, several members of this new series have shown in vitro activity against erythromycin-resistant strains. These include strains which are inducibly-resistant to erythromycin (S. aureus V41 and X400 and S. epidermidis EPI1) and even strains which are constitutively-resistant (S. epidermidis 270).

In assay [2] the test system is Staphylococcus aureus X400. To be noted: Staphylococcus aureus.
Excerpt: as §1

Assay [3] relates to Staphylococcus epidermidis 270. To be noted: Staphylococcus epidermidis, 270; Table IV; constitutively erythromycin-resistant; read-out: minimal inhibitory concentration (MIC).
Excerpt: as §1

The test system of assay [4] is Klebsiella pneumoniae X68. To be noted: Klebsiella pneumoniae, X68, agar dilution, read-out: minimal inhibitory concentration (MIC). For orientation: In agar dilution, organisms are placed on agar that contains the substance at set levels.
Assay [5] relates to Escherichia coli EC14. To be noted: Escherichia coli.
Assay [6] has as its system Staphylococcus aureus X1.1. The note with it: Staphylococcus aureus, X1.1, read-out: minimal inhibitory concentration (MIC).
Assay [7] concerns Streptococcus sp. group D X66. To be noted: Streptococcus, read-out: minimal inhibitory concentration (MIC).
Assay [8] concerns Haemophilus influenzae C.L. To be noted: Haemophilus influenzae, read-out: minimal inhibitory concentration (MIC).
In assay [9] the test system is Staphylococcus epidermidis 222. The note with it: Staphylococcus epidermidis, 222, read-out: minimal inhibitory concentration (MIC).
Assay [10] has as its system Streptococcus sp. group D 2041. The note with it: Streptococcus, read-out: minimal inhibitory concentration (MIC).
The subject of assay [11] is Streptococcus pyogenes C203. The note with it: Streptococcus pyogenes, C203, read-out: minimal inhibitory concentration (MIC).
Setting [12] is: V41, Table IV, penicillin-resistant strain, inducibly erythromycin-resistant, read-out: minimal inhibitory concentration (MIC).
[13] abbreviates: X400, Table IV, methicillin-resistant strain, inducibly erythromycin-resistant, read-out: minimal inhibitory concentration (MIC).
[14] abbreviates: EC14, Table IV, agar dilution, read-out: minimal inhibitory concentration (MIC).
Where [15] appears, read: EC14, read-out: minimal inhibitory concentration (MIC).

For `CCN[C@@H]1[C@H](C)[C@@H](O)[C@](C)(O)[C@@H](CC)OC(=O)[C@H](C)[C@@H](O[C@H]2C[C@@](C)(OC)[C@@H](O)[C@H](C)O2)[C@H](C)[C@@H](O[C@@H]2O[C@H](C)C[C@H](N(C)C)[C@H]2O)[C@](C)(O)C[C@H]1C` [Compound 2, (9S)-9-Deoxo-9-(ethylamino)erythromycin], the MIC in assay [1] (setting [12]), in assay [2] (setting [13]) and in assay [3] was more than 128 µg/mL in each case.

For `CCCN[C@@H]1[C@H](C)[C@@H](O)[C@](C)(O)[C@@H](CC)OC(=O)[C@H](C)[C@@H](O[C@H]2C[C@@](C)(OC)[C@@H](O)[C@H](C)O2)[C@H](C)[C@@H](O[C@@H]2O[C@H](C)C[C@H](N(C)C)[C@H]2O)[C@](C)(O)C[C@H]1C` [Compound 3, 9-Deoxo-9-(n-propylamino)erythromycin], the MIC in [1] (setting [12]), in assay [2] (setting [13]) and in assay [3] was more than 128 µg/mL each time.

With `CCCCCCN[C@@H]1[C@H](C)[C@@H](O)[C@](C)(O)[C@@H](CC)OC(=O)[C@H](C)[C@@H](O[C@H]2C[C@@](C)(OC)[C@@H](O)[C@H](C)O2)[C@H](C)[C@@H](O[C@@H]2O[C@H](C)C[C@H](N(C)C)[C@H]2O)[C@](C)(O)C[C@H]1C` [Compound 6, 9-Deoxo-9-(n-hexylamino)erythromycin], the MIC in [1] (setting [12]), in [2] (setting [13]) and in [3] was more than 128 µg/mL each time.

For the compound `CCCCCCCN[C@@H]1[C@H](C)[C@@H](O)[C@](C)(O)[C@@H](CC)OC(=O)[C@H](C)[C@@H](O[C@H]2C[C@@](C)(OC)[C@@H](O)[C@H](C)O2)[C@H](C)[C@@H](O[C@@H]2O[C@H](C)C[C@H](N(C)C)[C@H]2O)[C@](C)(O)C[C@H]1C` [Compound 7, 9-Deoxo-9-(n-heptylamino)erythromycin], the MIC in [1] (setting [12]), in [2] (setting [13]), in [3] and in assay [4] (Table IV) was more than 128 µg/mL each time.

For the compound `CCCCCCCCN[C@@H]1[C@H](C)[C@@H](O)[C@](C)(O)[C@@H](CC)OC(=O)[C@H](C)[C@@H](O[C@H]2C[C@@](C)(OC)[C@@H](O)[C@H](C)O2)[C@H](C)[C@@H](O[C@@H]2O[C@H](C)C[C@H](N(C)C)[C@H]2O)[C@](C)(O)C[C@H]1C` [Compound 8, 9-Deoxo-9-(n-octylamino)erythromycin], the MIC in assay [5] (setting [14]) and in assay [4] (Table IV) was more than 128 µg/mL in each case.

With `CC[C@H]1OC(=O)[C@H](C)[C@@H](O[C@H]2C[C@@](C)(OC)[C@@H](O)[C@H](C)O2)[C@H](C)[C@@H](O[C@@H]2O[C@H](C)C[C@H](N(C)C)[C@H]2O)[C@](C)(O)C[C@@H](C)[C@H](NCCC(C)C)[C@H](C)[C@@H](O)[C@]1(C)O` [Compound 11, 9-Deoxo-9-[(3-methylbutyl)amino]erythromycin], the MIC in assay [1] (setting [12]), in assay [2] (setting [13]) and in [3] was more than 128 µg/mL each time.

As to `CCC(CC)CN[C@@H]1[C@H](C)[C@@H](O)[C@](C)(O)[C@@H](CC)OC(=O)[C@H](C)[C@@H](O[C@H]2C[C@@](C)(OC)[C@@H](O)[C@H](C)O2)[C@H](C)[C@@H](O[C@@H]2O[C@H](C)C[C@H](N(C)C)[C@H]2O)[C@](C)(O)C[C@H]1C` [Compound 12, 9-Deoxo-9-[(2-ethylbutyl)amino]erythromycin], in assay [3], the MIC was more than 128 µg/mL.

`CCCCC/C=C\CCCN[C@@H]1[C@H](C)[C@@H](O)[C@](C)(O)[C@@H](CC)OC(=O)[C@H](C)[C@@H](O[C@H]2C[C@@](C)(OC)[C@@H](O)[C@H](C)O2)[C@H](C)[C@@H](O[C@@H]2O[C@H](C)C[C@H](N(C)C)[C@H]2O)[C@](C)(O)C[C@H]1C` [Compound 13]: the MIC is 0.25 µg/mL (≈ 0.286 µM) in assay [6]; 0.06 µg/mL (≈ 0.0687 µM) in [7]; 2 µg/mL (≈ 2.29 µM) in assay [8]; 128 µg/mL (≈ 147 µM) in [5] (setting [15]); more than 128 µg/mL in [4] (Table IV).

In the case of `CC[C@H]1OC(=O)[C@H](C)[C@@H](O[C@H]2C[C@@](C)(OC)[C@@H](O)[C@H](C)O2)[C@H](C)[C@@H](O[C@@H]2O[C@H](C)C[C@H](N(C)C)[C@H]2O)[C@](C)(O)C[C@@H](C)[C@H](NCC2CC=CCC2)[C@H](C)[C@@H](O)[C@]1(C)O` (stereo partly shown) [Compound 15, 9-Deoxo-9-[(1-cyclohex-4-enylmethyl)amino]erythromycin], the MIC in [1] (setting [12]), in assay [2] (setting [13]) and in [3] was more than 128 µg/mL each time.

In the case of `CC[C@H]1OC(=O)[C@H](C)[C@@H](O[C@H]2C[C@@](C)(OC)[C@@H](O)[C@H](C)O2)[C@H](C)[C@@H](O[C@@H]2O[C@H](C)C[C@H](N(C)C)[C@H]2O)[C@](C)(O)C[C@@H](C)[C@H](NCC#Cc2ccccc2)[C@H](C)[C@@H](O)[C@]1(C)O` [Compound 18, 9-Deoxo-9-[(3-phenyl-2-propynyl)amino]erythromycin], the MIC was 1 µg/mL (≈ 1.18 µM) in assay [6]; 0.5 µg/mL (≈ 0.589 µM) in [9]; 0.25 µg/mL (≈ 0.294 µM) in assay [7]; 1 µg/mL (≈ 1.18 µM) in [10]; more than 128 µg/mL in assay [5] (setting [14]); more than 128 µg/mL in [4] (Table IV).

With `CC[C@H]1OC(=O)[C@H](C)[C@@H](O[C@H]2C[C@@](C)(OC)[C@@H](O)[C@H](C)O2)[C@H](C)[C@@H](O[C@@H]2O[C@H](C)C[C@H](N(C)C)[C@H]2O)[C@](C)(O)C[C@@H](C)[C@H](NCCCCCO)[C@H](C)[C@@H](O)[C@]1(C)O` [Compound 21, 9-Deoxo-9-[(5-hydroxypentyl)amino]erythromycin], the MIC in assay [1] (setting [12]), in assay [2] (setting [13]) and in assay [3] was more than 128 µg/mL throughout.

In the case of `CC[C@H]1OC(=O)[C@H](C)[C@@H](O[C@H]2C[C@@](C)(OC)[C@@H](O)[C@H](C)O2)[C@H](C)[C@@H](O[C@@H]2O[C@H](C)C[C@H](N(C)C)[C@H]2O)[C@](C)(O)C[C@@H](C)[C@H](NCC(C)(C)CO)[C@H](C)[C@@H](O)[C@]1(C)O` [Compound 22, 9-Deoxo-9-[(3-hydroxy-2,2-dimethylpropyl)amino]erythromycin], the MIC in [1] (setting [12]), in assay [2] (setting [13]) and in assay [3] was more than 128 µg/mL in each case.

On to `CC[C@H]1OC(=O)[C@H](C)[C@@H](O[C@H]2C[C@@](C)(OC)[C@@H](O)[C@H](C)O2)[C@H](C)[C@@H](O[C@@H]2O[C@H](C)C[C@H](N(C)C)[C@H]2O)[C@](C)(O)C[C@@H](C)[C@H](NCCCOC)[C@H](C)[C@@H](O)[C@]1(C)O` [Compound 23, (9S)-9-Deoxo-9-[(3-methoxypropyl)amino]erythromycin], for which the MIC in assay [6] is 2 µg/mL (≈ 2.48 µM); in [1] (setting [12]), more than 128 µg/mL; in assay [2] (setting [13]) it was more than 128 µg/mL; in assay [3] it was more than 128 µg/mL; in assay [9], 0.5 µg/mL (≈ 0.62 µM); in [11], 0.125 µg/mL (≈ 0.155 µM). Besides, the MIC in assay [7] came out at 0.25 µg/mL (≈ 0.31 µM); in assay [10], 8 µg/mL (≈ 9.91 µM).

With `CC[C@H]1OC(=O)[C@H](C)[C@@H](O[C@H]2C[C@@](C)(OC)[C@@H](O)[C@H](C)O2)[C@H](C)[C@@H](O[C@@H]2O[C@H](C)C[C@H](N(C)C)[C@H]2O)[C@](C)(O)C[C@@H](C)[C@H](NCCC(C)CCCC(C)(C)OC)[C@H](C)[C@@H](O)[C@]1(C)O` (stereo partly shown) [Compound 24, 9-Deoxo-9-[(7-methoxy-3,7-dimethyloctyl)amino]erythromycin], the MIC is 0.5 µg/mL (≈ 0.552 µM) in [6]; more than 128 µg/mL in assay [3]; 0.25 µg/mL (≈ 0.276 µM) in [9]; 0.015 µg/mL (≈ 0.0166 µM) in [11]; 2 µg/mL (≈ 2.21 µM) in assay [10]; 128 µg/mL (≈ 141 µM) in assay [5] (setting [15]). Moreover, the MIC in assay [4] (Table IV) is more than 128 µg/mL.

Regarding `CC[C@H]1OC(=O)[C@H](C)[C@@H](O[C@H]2C[C@@](C)(OC)[C@@H](O)[C@H](C)O2)[C@H](C)[C@@H](O[C@@H]2O[C@H](C)C[C@H](N(C)C)[C@H]2O)[C@](C)(O)C[C@@H](C)[C@H](NCCOCCOC)[C@H](C)[C@@H](O)[C@]1(C)O` [Compound 25, 9-Deoxo-9-[[2-(2-methoxyethoxy)ethyl]amino]erythromycin], the MIC in assay [1] (setting [12]), in assay [2] (setting [13]) and in assay [3] was more than 128 µg/mL in each case.

`CC[C@H]1OC(=O)[C@H](C)[C@@H](O[C@H]2C[C@@](C)(OC)[C@@H](O)[C@H](C)O2)[C@H](C)[C@@H](O[C@@H]2O[C@H](C)C[C@H](N(C)C)[C@H]2O)[C@](C)(O)C[C@@H](C)[C@H]2[C@H](C)[C@@H](OCN2C(C)C)[C@]1(C)O` [Compound 58, 9-Deoxo-9-[isopropylamino]-9,11-(N,O)-cyclic Methylene Adduct of Erythromycin]: the MIC in assay [1] (V41, read-out: minimal inhibitory concentration (MIC)) was more than 128 µg/mL; in [2] (X400, read-out: minimal inhibitory concentration (MIC)) it was more than 128 µg/mL.

`CC[C@H]1OC(=O)[C@H](C)[C@@H](O[C@H]2C[C@@](C)(OC)[C@@H](O)[C@H](C)O2)[C@H](C)[C@@H](O[C@@H]2O[C@H](C)C[C@H](N(C)C)[C@H]2O)[C@](C)(O)C[C@@H](C)[C@H]2[C@H](C)[C@@H](OCN2Cc2ccccc2)[C@]1(C)O` [Compound 62, 9-Deoxo-9-[(benzyl)amino]-9,11-(N,O)-cyclic Methylene Adduct of Erythromycin]: the MIC in assay [5] (EC14, Table V, agar dilution, read-out: minimal inhibitory concentration (MIC)) was more than 128 µg/mL; in assay [4] (Table V), more than 128 µg/mL.

The values are drawn from US5110800A, “Derivatives of erythromycylamine” (Eli Lilly and Company, priority 1989, dated 1992).
